# Measurements: patent US20230365530A1, “QUINAZOLINE-2,4-DIAMINE DERIVATIVE AND PHARMACEUTICAL COMPOSITION FOR PREVENTING OR TREATING CANCER COMPRISING SAME AS ACTIVE INGREDIENT” (THE ASEAN FOUNDATION, priority 2020, published 2023)
# How the values were obtained:
# [1] = target: EHMT2 (Euchromatic histone-lysine N-methyltransferase 2) (Homo sapiens (Human), UniProt Q96KQ7); experiment: EHMT2 enzyme inhibition, LANCE TR-FRET; type: biochemical; settings: histone H3 peptide, 1 hour at room temperature
# How it was run: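 EHMT2/G9a enzyme preincubated 10 min with SAM and compounds (1 nM–100 μM, 4× stocks), then reacted 1 hour at room temperature with biotinylated histone H3 peptide (2 μM, 4× stock). H3K9 methylation detected by Eu-antibody/ULight-streptavidin TR-FRET at 665 nm; background-subtracted activity expressed relative to 4% DMSO vehicle; IC50 calculated.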
# [2] = test system: pancreatic cancer cell line Miapaca 2; experiment: Cancer cell growth inhibition test, CellTiter-glo; type: cell-based; settings: Homo sapiens, MIA PaCa-2, Miapaca 2 cells, 72 hours
# Description: In order to confirm the effect of reducing cell viability by inhibiting EHMT2 by the compounds of Examples in cells, the effect of inhibiting cancer cell growth was analyzed using CellTiter-glo™ analysis (Promega, cat. G7573) method. Specifically, the amount of ATP in living cells was measured and IC50 values were calculated using software to compare the inhibitory effect of the compounds of Examples on cell viability. First, the pancreatic cancer cell line Miapaca 2 was placed in a 96-well cell culture plate at the density of 1×10^3 cells/well and cultured overnight, and then each well of the plate was treated with 1 nM to 100 μM of the compounds of Examples 1 to 89 at each concentration for 72 hours (The final concentration of DMSO in each well was 0.5% or less). CellTiter-glo 2.0 reagent was mixed with a medium at 20% of the amount of the medium, reacted at room temperature for 10 minutes, and then 80 μL of the mixture was transferred to each well of a 96-well plate, followed by measuring the degree of luminescence.
# Miapaca2 xenograft model = experiment: Tumor growth inhibition in Miapaca2 xenograft model; type: in vivo, Athymic nude mouse; settings: 20 mg/kg intraperitoneally once a day for 4 weeks
# Description: In order to confirm the tumor growth inhibitory effect of the compounds of Examples according to the present invention in a xenograft model in which the human pancreatic cancer cell line was transplanted, a cancer growth inhibition experiment was conducted in the Miapaca2 xenograft model.
# Specific experimental methods are as follows. The frozen Miapaca-2 cell line was thawed and cultured in DMEM (Dulbecco's modified Eagle's medium) supplemented with 10% FBS and 1% penicillin-streptomycin in a 37° C., 5% CO2 incubator. The thawed cells were cultured for more than one week, and subcultured at intervals of 2˜3 days, confirming that there was no infection with bacteria, yeast (cell image) and mycoplasma. The cells were stained with trypan blue, and those having a survival rate of 90% or more were used for transplantation. The cells were suspended using trypsin-EDTA and then suspended in a cold solution (PBS:matrigel=6:4). Miapaca-2 cells (4×10^6 cells/[…]) were subcutaneously transplanted under the right scapula of the Athymic nude mouse, which had been acclimated for about 1 week. From the 3rd day after the transplantation, tumor formation and growth were observed, and the volume of the tumor was calculated according to the following equation using the measured tumor length.
# [Tumor volume=(a^2b)/2, a: short diameter, b: long diameter]
# When the average tumor volume of all mice on the day after tumor transplantation was 80±20 mm^3, the mice were grouped by paired-matching. Drugs were dissolved in 40% polyethylene glycol 400+16% 2-hydroxypropyl-b-cyclodextrin. The drugs were intraperitoneally administered at 20 mg/kg once a day for 4 weeks. A tumor growth curve was prepared using the tumor volume from the start date of drug administration to the end of the test. The results are shown in FIG. 1, and the tumor growth inhibition rates of the compounds of Examples to the control group are shown in Table 4.
# MC38 syngeneic model = experiment: Combination therapy with anti CTLA-4 in MC38 syngeneic model; type: in vivo, C57BL/6 mouse
# Description: In order to confirm the synergistic efficacy of the combination therapy of the compounds of Examples of the present invention and a cancer immunotherapy agent (anti CTLA-4) in a syngeneic animal model transplanted with a mouse colorectal cancer cell line, a cancer cell growth inhibition experiment was conducted in the MC38 syngeneic model. Specific experimental methods are as follows. The frozen MC38 cell line was thawed and cultured in DMEM (Dulbecco's modified Eagle's medium) supplemented with 10% FBS and 1% penicillin-streptomycin in a 37° C., 5% CO2 incubator. The thawed cells were cultured for more than one week, and subcultured at intervals of 2-3 days, confirming that there was no infection with bacteria, yeast (cell image) and mycoplasma. The cells were stained with trypan blue, and those having a survival rate of 90% or more were used for transplantation. The cells were suspended using trypsin-EDTA and then suspended in cold PBS. MC38 cells (1×10^5 cells/150 μl) were subcutaneously transplanted under the right scapula of the C57BL/6 mouse, which had been acclimated for about 1 week. From the 3rd day after the transplantation, tumor formation and growth were observed, and the volume of the tumor was calculated according to the following equation using the measured tumor length. [Tumor volume=(a^2b)/2, a: short diameter, b: long diameter] When the average tumor volume of all mice on the day after tumor transplantation was 80±20 mm^3, the mice were grouped by paired-matching. Drugs were dissolved in 40% polyethylene glycol 400+16% 2-hydroxypropyl-b-cyclodextrin. The compounds of Examples of the present invention were intraperitoneally administered at 30 mg/kg once a day for 4 weeks, and the CTLA-4 antibody (BioX Cell, cat. BE1031) was intraperitoneally administered at 10 mg/kg three times a week. A tumor growth curve was prepared using the tumor volume from the start date of drug administration to the end of the test. The results are shown in FIG. 2, and the tumor growth inhibition rates of the compounds of Examples to the control group are shown in Table 5.
# Chain of EHMT2 (Euchromatic histone-lysine N-methyltransferase 2) (Q96KQ7 whole entry): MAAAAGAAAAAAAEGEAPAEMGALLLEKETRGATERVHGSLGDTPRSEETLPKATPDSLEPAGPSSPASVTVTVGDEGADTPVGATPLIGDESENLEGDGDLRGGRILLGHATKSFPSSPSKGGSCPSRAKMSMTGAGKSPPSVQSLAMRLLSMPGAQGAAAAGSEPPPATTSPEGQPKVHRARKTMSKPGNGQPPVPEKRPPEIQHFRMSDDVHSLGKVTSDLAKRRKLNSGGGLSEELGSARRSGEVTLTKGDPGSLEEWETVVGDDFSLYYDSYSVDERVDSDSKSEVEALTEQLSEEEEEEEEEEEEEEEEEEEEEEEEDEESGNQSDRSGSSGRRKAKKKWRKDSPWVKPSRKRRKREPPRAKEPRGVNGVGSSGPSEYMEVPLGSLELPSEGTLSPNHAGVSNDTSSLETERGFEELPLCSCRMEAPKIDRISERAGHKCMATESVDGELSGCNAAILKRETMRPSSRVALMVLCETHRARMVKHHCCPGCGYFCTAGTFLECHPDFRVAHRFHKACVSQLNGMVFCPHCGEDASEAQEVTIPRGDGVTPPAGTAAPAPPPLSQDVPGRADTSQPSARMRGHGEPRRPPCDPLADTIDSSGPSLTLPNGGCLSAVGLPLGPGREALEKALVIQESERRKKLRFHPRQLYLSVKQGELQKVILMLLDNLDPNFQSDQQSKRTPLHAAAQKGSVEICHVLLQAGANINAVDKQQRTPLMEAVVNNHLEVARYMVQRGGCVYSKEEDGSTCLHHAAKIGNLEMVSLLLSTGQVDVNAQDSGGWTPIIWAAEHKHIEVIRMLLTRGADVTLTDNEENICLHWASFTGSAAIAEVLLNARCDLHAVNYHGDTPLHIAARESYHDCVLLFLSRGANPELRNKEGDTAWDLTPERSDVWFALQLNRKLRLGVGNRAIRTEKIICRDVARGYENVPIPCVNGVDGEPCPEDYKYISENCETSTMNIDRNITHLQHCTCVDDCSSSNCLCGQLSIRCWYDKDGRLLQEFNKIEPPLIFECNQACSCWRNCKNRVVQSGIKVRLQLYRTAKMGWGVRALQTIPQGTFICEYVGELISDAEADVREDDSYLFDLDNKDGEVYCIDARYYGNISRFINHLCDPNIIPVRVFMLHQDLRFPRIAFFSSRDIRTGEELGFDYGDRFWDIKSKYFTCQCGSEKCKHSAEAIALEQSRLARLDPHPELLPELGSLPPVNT
smiles,measurement,setting,value
"COc1cc2c(NC3CCN(C(C)C)CC3)nc(N3CCCCC3)nc2cc1C#CCCN(C)C [Example 3, 7-(4-(dimethylamino)-1-butyne-1-yl)-N-(1-isopropylpiperidine-4-yl)-6-methoxy-2-(piperidine-1-yl)quinazoline-4-amine]",IC50,[1],< 100 nM
same,IC50,[2],655 nM
same,Tumor growth inhibition rate (TGI),Miapaca2 xenograft model,42.47
same,Effect of combination with cancer immunotherapy agent (in words),MC38 syngeneic model; combined with anti CTLA-4,enhancing the anticancer activity of a cancer immunotherapy agent
same,Tumor growth inhibition rate (TGI),"MC38 syngeneic model; compound alone, 30 mg/kg intraperitoneally once a day for 4 weeks",3.00%
same,Anticancer activity alone (in words),MC38 syngeneic model; treated alone,inhibits tumor growth even when treated alone
